We go through three compounds from US20250361272A1, “HISTIDINE-BASED UNNATURAL AMINO ACID, ITS PRODUCTION AND USE” (priority 2024, published 2025).

One data set is described as follows: in vitro. Particulars: human, 30% human serum in RPMI medium. As to the method:
The experiment was performed in RPMI medium with 30% human serum at 37° C. Aliquots of the solution were analysed by HPLC-MS and the relative content was determined using an internal standard (phenol). The experiment was performed in three independent experiments.

Another data set concerns Bacillus subtilis. The data set can be described thus: Minimum inhibitory concentration (MIC) in Mueller-Hinton medium. In kind it is cell-based. The following applies: relative to Com2. As to the method: The experiments were performed in Mueller-Hinton medium in three independent experiments.
Analogously to P14, these amino acids have been incorporated into the parental sequence of Com2 and were partially tested on their antimicrobial activity against Gram-positive Bacillus Subtilis 3610 NCIB.

For the next data set, the system named is E. feacium. In kind it is cell-based.
For the next data set, the system named is S. aureus. The data set can be described thus: MIC against ESKAPE pathogens in Mueller-Hinton medium. In kind it is cell-based. Particulars: Gram-positive.
For another data set, the system named is S. pneumoniae. Type of data set: cell-based.
Data set [1] concerns K. pneumoniae. Type of data set: cell-based.
Data set [2] concerns A. baumannii. In kind it is cell-based.
A further data set concerns P. aeruginosa. In kind it is cell-based.
A further data set relates to E. cloacae. In kind it is cell-based.
A further data set concerns E. coli. The data set can be described thus: MIC against ESKAPE pathogens in Mueller-Hinton medium. In kind it is cell-based. Particulars: Gram-negative.
A short description of data set [3]: Viability of HCT116 cells (cytotoxicity). The following applies: human; HCT116 cells in DMEM with 10% FBS; read-out: cytotoxic concentration CC50. In kind it is cell-based. As to the method:
(§1) FIGS. 3A and 3B show the viability of HCT116 cells in DMEM with 10% FBS and 1% penicillin/streptomycin (FIG. 3A). The haemolysis experiments were performed with fresh blood from a healthy donor. Both experiments were performed in three independent experiments.
(§2) This is therefore >65-fold higher than the minimum inhibitory concentration against B. subtilis. […] Consequently, the P14 peptide as an antibiotic offers a distinct concentration window for therapeutic use.

A further data set concerns HCT116 cells. In words: Viability of HCT116 cells (cytotoxicity). In kind it is cell-based. The following applies: CC50 (HCT116) over MIC (B. subtilis). As to the method: as §1, §2
For a further data set, the system named is human blood. In words: Haemolysis experiment with fresh blood from a healthy donor. Type of data set: cell-based. As to the method:
as §1, §2
3) Haemolysis experiments using human blood from a healthy donor show a haemolytic concentration >50-fold above the minimum inhibitory concentration against B. subtilis.

Data set [4] deals with K. pneumoniae. The data set can be described thus: Infection model 1: treatment of K. pneumoniae-infected A549 lung cells. In kind it is cell-based. Particulars: at 8 μM, surviving bacterial colonies. The protocol: (§3) The number of surviving bacterial colonies after treatment with peptide is shown.
The peptide P14 was tested as an antibiotic against the treatment of K. pneumoniae-infected A549 lung cells.

For data set [5], the system named is A. baumannii. The data set can be described thus: Infection model 2: mouse skin infection with A. baumannii. In kind it is in vivo. Particulars: A. baumannii infected mice, superficial abrasion. As to the method:
as §3
Infection of the mice was induced by superficial abrasion and incubation with the bacterial culture.

Another data set has as its system B. subtilis NCIB 3610. In words: Fluorescence microscopy of B. subtilis stained with HADA (peptidoglycan synthesis). In kind it is cell-based. An excerpt: Scale bars represent 2 μm. BF are the bright light images.
Fluorescence microscopy of B. subtilis stained with HADA, showing newly synthesised peptidoglycan from control cells.

Residues, ends and D or L forms follow the SMILES beside them.

Consider `N=C(N)NCCC[C@H](NC(=O)[C@H](Cc1c[nH]c2ccccc12)NC(=O)[C@H](Cc1c[nH]c2ccccc12)NC(=O)[C@H](CCCNC(=N)N)NC(=O)[C@@H](N)CCCNC(=N)N)C(=O)N[C@@H](Cc1ccccc1)C(N)=O` [Com2, H2N-RRWWRF-CONH2, reference compound] (H-RRWWRF-NH2), for which the half-life in “in vitro” is around 24 min.
Regarding `CC(=O)Nc1ccc(C(=O)N[C@@H](CCCNC(=N)N)C(=O)N[C@@H](CCCNC(=N)N)C(=O)N[C@@H](Cc2c[n+](Cc3ccc4ccccc4c3)cn2Cc2ccc3ccccc3c2)C(=O)N[C@@H](Cc2c[n+](Cc3ccc4ccccc4c3)cn2Cc2ccc3ccccc3c2)C(=O)N[C@@H](CCCNC(=N)N)C(=O)N[C@@H](Cc2ccccc2)C(N)=O)cc1` [Peptide P14, Aba-RR-Hdn-Hdn-RF-CONH2], the “minimum inhibitory concentration (MIC) compared to the parent peptide (Com2)” value in the data set on Bacillus subtilis is above 24 fold. Also, the minimal inhibitory concentration (MIC) stood at 0.8 µM against E. feacium; 1.6 µM in the data set on S. aureus; 2.2 µM in the data set with S. pneumoniae; 12.5 µM in the data set on K. pneumoniae [1]; 6.3 µM in the data set on A. baumannii [2]; 12.5 µM in the data set with P. aeruginosa. Moreover, the MIC against E. cloacae and in the data set with E. coli was 25 µM throughout. In addition, the half-life in the data set “in vitro” is above 840 min. The CC50 in data set [3] stood at 50.4 ± 4.48 µM. The “cytotoxic concentration relative to MIC against B. subtilis” value with HCT116 cells was above 65 fold. The “haemolytic concentration relative to the MIC value” in the data set with human blood (HC50 over MIC (B. subtilis)) is above 50 fold. Besides, the “haemolytic concentration HC50” value with human blood (fresh blood from a healthy donor) was determined as 38.62 ± 2.58 µM. Moreover, in the data set on K. pneumoniae [4], the “inhibition of bacterial growth in infected A549 lung cells” value is “complete inhibition of bacterial growth”. Besides, in the data set with A. baumannii [5], the “potency in mouse skin infection compared to polymyxin B” value is reported as “can be compared with that of the commonly used polymyxin B”. In addition, in the data set with A. baumannii [5] (surviving bacterial colonies), the “activity in mouse skin infection compared to control peptide P3” value was “higher activity than the control peptide P3”. Moreover, in the data set on B. subtilis NCIB 3610, the “HADA staining of newly synthesised peptidoglycan” value is “inhibits bacterial polyglycan synthesis”.
Turning to `CN[C@H](CC(C)C)C(=O)N[C@H]1C(=O)N[C@@H](CC(N)=O)C(=O)N[C@H]2C(=O)N[C@H]3C(=O)N[C@H](C(=O)N[C@H](C(=O)O)c4cc(O)cc(O)c4-c4cc3ccc4O)[C@H](O)c3ccc(c(Cl)c3)Oc3cc2cc(c3O[C@@H]2O[C@H](CO)[C@@H](O)[C@H](O)[C@H]2O[C@H]2C[C@](C)(N)[C@H](O)[C@H](C)O2)Oc2ccc(cc2Cl)[C@H]1O` [vancomycin, reference compound], the “HADA staining of newly synthesised peptidoglycan” value in the data set with B. subtilis NCIB 3610 was “no HADA binding to the cell periphery is visible”.
